For assay [1], the system named is SYK dependent basophil degranulation (CD63 surface expression on basophils in whole blood). Kind of assay: CD63-assay (cellular assay for SYK-inhibition) in whole blood. The format is cell-based. On the procedure: In this assay, IgE raised against dinitrophenol (DNP) is incubated in whole blood where it binds to the FcεR1 on basophils. […] CD63 normally resides on the intracellular granule membrane within basophils, which upon degranulation, is then expressed on the surface where it can be detected by flow cytometry. Surface expression of CD63 correlates extremely well with the release of histamine from basophils. The CD63 assay has previously been validated as a clinical target engagement biomarker in the Fostamatinib SYK program (Braselmann et al, J. Pharm. Exp. Therap. 319:998-1008, 2006). Heparinized whole blood is mixed gently (vortex mixer) and […] per test aliquoted into a 96 well plate. Anti-DNP (1 mg/ml) is diluted 1:100 with PBS/0.1% HSA to 10 μg/ml (final concentration: 1 μg/mL). Pre-dilute DNP/BSA (5 mg/ml) to a concentration of 60 ng/ml with washing solution. Compounds: […] Reagents are provided from the Basotest® kit. Incubate 10 μl of 10 μg/ml anti DNP and 10 μl of compound with 100 μl whole blood in a 37° C. pre-warmed water bath. After 30 minutes, 20 μl of STIMULATION BUFFER is added to the whole blood samples and vortexed gently. Incubate the samples for 10 min at 37° C. in a water bath. 100 μl of DNP/BSA is added per test to the whole blood. Add 100 μl of the WASHING SOLUTION to a further test tube as a negative control. Add 100 μl of DNP/BSA (final 30 ng/ml) in the compound tubes. All tubes are mixed once more. The samples are incubated for 20 min at 37° C. in a water bath. Stop degranulation by incubating the samples on ice for 5 min. Add 20 μl of STAINING REAGENT to each tube. Vortex and incubate the tubes for 20 min in an ice bath, covered to prevent exposure to light. The whole blood samples are lysed and fixed with 2 ml of pre-warmed (room temperature) 1×LYSING SOLUTION. Vortex and incubate for 10 min at room temperature. Spin down cells (5 min, 250×g, 4° C.). Discard the supernatant. Add 3 ml of WASHING SOLUTION to the tubes. Centrifuge the tubes (5 min, 250×g, 4° C.). Aspirate the supernatant. Add 200 μl WASHING SOLUTION to the cell pellet, vortex. Incubate the tubes in a covered ice bath until analysis. Cells are analysed by flow cytometry using the blue-green excitation light (488 nm argon-ion laser). Acquire data by using fluorescence triggering in the FL2 channel (PE) to gate on basophilic granulocytes expressing high amounts of IgE. This live gating reduces the amount of data and saves memory capacity. Acquire at least 500 basophils per sample. For data evaluation and calculation, the measurement of the negative control (unstimulated blood) was set as 100% control and the measurement of the positive control (DNP/anti-DNP stimulated blood) was set as 0% control. Based on these values the % value for the measurement of each substance concentration was calculated, a concentration-effect curve fitted and an EC50 value calculated using GraphPad Prism version 6.01 for Windows. The EC50 value was calculated using a nonlinear fitting (log(inhibitor) vs. response—variable slope). Normally, the % control values calculated are between 0% and 100% values but may also occur outside these limits in individual cases based on variability or compound characteristics.

In assay [2] the target is Recombinant human FLT3 (amino acids 564-958) (Homo sapiens (Human), UniProt P36888). Kind of assay: FLT3 kinase test (ADP Glo). Type of assay: biochemical. How it is done: The activity of the FLT3 kinase protein was determined using the ADP Glo® Luminescence Kinase test (Promega; V9103X). In this homogeneous test the amount of ADP remaining after the kinase reaction is quantified by a luciferin-luciferase reaction using luminescence. The luminescence signal obtained correlates with the amount of ADP still present and thus correlates with the activity of the protein kinase.
Sequence of Recombinant human FLT3 (amino acids 564-958) (P36888 564-958): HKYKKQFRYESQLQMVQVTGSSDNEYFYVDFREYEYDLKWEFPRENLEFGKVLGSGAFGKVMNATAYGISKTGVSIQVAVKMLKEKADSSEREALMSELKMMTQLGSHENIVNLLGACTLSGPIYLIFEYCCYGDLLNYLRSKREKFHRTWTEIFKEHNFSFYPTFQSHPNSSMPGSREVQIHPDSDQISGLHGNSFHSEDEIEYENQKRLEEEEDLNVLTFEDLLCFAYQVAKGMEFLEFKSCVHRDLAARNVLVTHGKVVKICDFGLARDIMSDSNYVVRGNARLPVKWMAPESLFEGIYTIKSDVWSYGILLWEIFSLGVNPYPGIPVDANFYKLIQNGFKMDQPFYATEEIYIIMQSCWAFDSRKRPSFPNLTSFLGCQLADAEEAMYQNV
The test compounds were dissolved in 100% DMSO at a concentration of 10 mM and diluted in DMSO to a concentration of 5 mM. Serial Dilution is done in 1:10 steps in 100% DMSO. All further dilutions of the substances were carried out with test buffer (50 mM Hepes, pH 7.5, 10 mM MgCl2, 1 mM EGTA, 0.01% Brij35, 0.1% BSA) until a concentration was reached which was 2.5 times above the final test concentration (final concentration of the compounds: 50 μM to 0.005 nM). […] FLT3 enzyme was diluted to 5 nM in the test buffer and 4 μl of this dilution were used in the kinase test (final concentration of FLT3=2 nM in a total volume of 10 μl). After 60 minutes incubation at room temperature 2 μl mixture of 2.5 mg/ml substrate (Poly-Glu/Tyr; Sigma #P0275) and 2.5 mM ultra-pure ATP (Promega #V915B) in test buffer were added to each well and the incubation was continued for a further 90 minutes at room temperature.
Positive controls are the reaction mixtures that contain no test substance; negative controls (blanks) are reaction mixtures that contain no kinase.
After 90 minutes, 10 μl ADP-Glo® solution (ADP-Glo Reagent #V912B Promega) (heated to room temperature) were added to each well and incubation was continued for a further 60. minutes. Then 20 μl Kinase detection mix (Detection Buffer #V913B Promega; Kinase Detection Substrate #V914B Promega) were added and incubated for 40 minutes at room temperature. The plates were read in Envision Luminescence Reader (Perkin-Elmer).
The output file of the reader is a csv file that contains the well number and measured RLU. For data evaluation and calculation, the measurement of the negative control was set as 0% ctrl and the measurement of the positive control was set as 100% ctrl. Based on this values the % value for the measurement of each substance concentration can be calculated using an Assay Explorer software (e.g. Accelrys). Normally, the % ctrl values calculated are between 0% and 100% values but may also occur outside these limits in individual cases based on variability or compound characteristics. The IC50 values were calculated from the % ctrl values using Assay Explorer software. Calculation: [y=(a−d)/(1+(x/c)^b)+d], a=low value, d=high value; x=conc. M; c=IC50 M; b=hill; y=% ctrl.

[3] abbreviates: whole blood, DNP/anti-DNP stimulated basophils, read-out: CD63 assay EC50-value (chapter 5.2).
[4] abbreviates: read-out: FLT3 inhibition IC50-value (chapter 5.4).

Like-named read-outs stand apart in the source and are kept apart here.

Here are results for 17 compounds from US10155751B2, “Pyrazolyl-substituted heteroaryls and their use as medicaments” (Boehringer Ingelheim International GmbH, priority 2015, dated 2018).

The EC50 is the midpoint of the concentration-response curve. For orientation: IC50 means the concentration needed to halve the response being measured. In the case of `Cc1c2c(O[C@H](C)[C@H]3CNC(=O)C3)nc(-c3c[nH]nc3C(C)(C)C)cc2nn1C` [Example 4, (R)-4-{(R)-1-[6-(3-tert-Butyl-1H-pyrazol-4-yl)-2,3-dimeth-yl-2H-pyrazolo[4,3-c]pyridin-4-yloxy]-ethyl}-pyrrolidin-2-one], in assay [1] (setting [3]), the EC50 was found to be 64 nM. For the same compound, the half-inhibitory concentration (IC50) in assay [2] (setting [4]) worked out at 7410 nM.

As to `C[C@@H](Oc1cc(-c2cnn(C3CCC(F)(F)C3)c2)cc2nn(C)c(F)c12)[C@H]1CNC(=O)C1` (stereo partly shown) [Example 7], the EC50 in assay [1] (setting [3]) was 53 nM. The IC50 in assay [2] (setting [4]) turned out to be 2440 nM.

With `C[C@@H](Oc1cc(-c2cnn(C3CCC3)c2)cc2nn(C)c(F)c12)[C@H]1CNC(=O)C1` [Example 1, (R)-4-{(R)-1-[6-(1-Cyclobutyl-1H-pyrazol-4-yl)-3-fluoro-2-methyl-2H-indazol-4-yloxy]-ethyl}-pyrrolidin-2-one], the EC50 in assay [1] (setting [3]) is 41 nM. In assay [2] (setting [4]), the concentration for half-maximal inhibition (IC50) was found to be 2230 nM.

For the compound `Cc1cc2c(O[C@H](C)[C@H]3CNC(=O)C3)cc(-c3cnn(C(C)(C)C)c3)cn2n1` [example 6.60 on page 587 of WO15017610, reference compound], the EC50 in assay [1] (read-out: EC50 in CD63-assay) and in assay [1] (setting [3]) was 483 nM in each case. The IC50 in assay [2] (setting [4]) and in assay [2] (read-out: IC50(FLT3)) was 6680 nM each time.

Consider `Cc1c2c(O[C@H](C)[C@H]3CNC(=O)C3)cc(-c3cnn(C4CC(C)(C)OC4(C)C)c3)cc2nn1C` (stereo partly drawn) [Example 16, (R)-4-((R)-1-{2,3-Dimethyl-6-[1-(2,2,5,5-tetramethyl-tetrahydro-furan-3-yl)-1H-pyrazol-4-yl]2H-indazol-4-yloxy}-ethyl)-pyrrolidin-2-one], for which the EC50 in assay [1] (setting [3]) was determined as 82 nM. The IC50 in assay [2] (setting [4]) is 3490 nM.

Take `Cc1cnn2cc(-c3cnn(C(C)(C)C)c3)cc(O[C@H](C)[C@H]3CNC(=O)C3)c12` [example 6.09 on page 559 of WO15017610, reference compound]: the EC50 is less than 150 nM in assay [1] (read-out: EC50 in CD63-assay) and 20 nM in assay [1] (setting [3]). The 50% inhibitory concentration (IC50) in assay [2] (setting [4]) and in assay [2] (read-out: IC50(FLT3)) was 25 nM throughout.

As for `Cc1c2c(O[C@H](C)[C@H]3CNC(=O)C3)cc(-c3cnn(C(C)(C)C)c3)cc2nn1C` [Example 13, (R)-4-{(R)-1-[6-(1-tert-Butyl-1H-pyrazol-4-yl)-2,3-dimethyl-2H-indazol-4-yloxy]-ethyl}-pyrrolidin-2-one], in assay [1] (setting [3]), the EC50 amounted to 58 nM. For the same compound, the IC50 in assay [2] (setting [4]) worked out at 5220 nM.

For the compound `Cc1c2c(O[C@H](C)[C@H]3CNC(=O)C3)cc(-c3cnn([C@H]4CO[C@@H]5CCCO[C@@H]54)c3)cc2nn1C` [Example 10, 4-(1-{6-[(R)-(3S,3aR,7aR)-1-(Hexahydro-furo[3,2-b]pyran-3-yl)-1H-pyrazol-4-yl]-2,3-dimethyl-2H-indazol-4-yloxy}-ethyl)-pyrrolidin-2-one], the EC50 in assay [1] (setting [3]) was found to be 65 nM. In addition, the IC50 in assay [2] (setting [4]) was 2020 nM.

Regarding `Cc1c2c(O[C@H](C)[C@H]3CNC(=O)C3)cc(-c3cnn(C4CCC(F)(F)C4)c3)cc2nn1C` (stereo partly drawn) [Example 22, (R)-4-((R)-1-{6-[1-(3,3-Difluoro-cyclopentyl)-1H-pyrazol-4-yl]-2,3-dimethyl-2H-indazol-4-yloxy}-ethyl)-pyrrolidin-2-one], in assay [1] (setting [3]), the EC50 is 67 nM. Besides, the IC50 in assay [2] (setting [4]) was determined as 1950 nM.

Consider `Cc1c2c(O[C@H](C)[C@H]3CNC(=O)C3)cc(-c3cnn(C4CC4)c3)cc2nn1C` [Example 20, (R)-4-{(R)-1-[6-(1-Cyclopropyl-1H-pyrazol-4-yl)-2,3-dimethyl-2H-indazol-4-yloxy]-ethyl}-pyrrolidin-2-one], for which the 50% effective concentration (EC50) in assay [1] (setting [3]) worked out at 134 nM. The IC50 in assay [2] (setting [4]) was found to be 3320 nM.

Take `Cc1c2c(O[C@H](C)[C@H]3CNC(=O)C3)cc(-c3cnn([C@@H]4CCOC(C)(C)C4)c3)cc2nn1C` [Example 9, (R)-4-((R)-1-{6-[1-((R)-2,2-Dimethyl-tetrahydro-pyran-4-yl)-1H-pyrazol-4-yl]-2,3-dimethyl-2H-indazol-4-yloxy}-ethyl)-pyrrolidin-2-one]: in assay [1] (setting [3]), the concentration giving a half-maximal response (EC50) is 52 nM. Besides, the IC50 in assay [2] (setting [4]) came to 1840 nM.

For `Cc1c2c(O[C@H](C)[C@H]3CNC(=O)C3)cc(-c3cnn(C(C)(C)C#N)c3)cc2nn1C` [Example 17, 2-(4-{2,3-Dimethyl-4-[(R)-1-((R)-5-oxo-pyrrolidin-3-yl)-ethoxy]-2H-indazol-6-yl}-pyrazol-1-yl)-2-methyl-propionitrile], the EC50 in assay [1] (setting [3]) is 92 nM. In assay [2] (setting [4]), the IC50 is 11300 nM.

For the compound `Cc1c2c(O[C@H](C)[C@H]3CNC(=O)C3)cc(-c3cnn(C(C)C)c3)cc2nn1C` [Example 18, (R)-4-{(R)-1-[6-(1-Isopropyl-1H-pyrazol-4-yl)-2,3-dimethyl-2H-indazol-4-yloxy]-ethyl}-pyrrolidin-2-one], the EC50 in assay [1] (setting [3]) turned out to be 95 nM. The IC50 in assay [2] (setting [4]) is 4670 nM.

As to `C[C@@H](Oc1cc(-c2cnn(CC3CC3)c2)cc2nn(C)c(F)c12)[C@H]1CNC(=O)C1` [Example 6, (R)-4-{(R)-1-[6-(1-Cycloprop-ylmethyl-1H-pyrazol-4-yl)-3-fluoro-2-methyl-2H-indazol-4-yloxy]-ethyl}-pyrrolidin-2-one], the EC50 in assay [1] (setting [3]) was determined as 42 nM. Further, the IC50 in assay [2] (setting [4]) was 3730 nM.

With `CC(C)n1cc(-c2cc(O[C@H](C)[C@H]3CNC(=O)C3)c3c(F)n(C)nc3c2)cn1` [Example 2, (R)-4-{(R)-1-[3-Fluoro-6-(1-isopropyl-1H-pyrazol-4-yl)-2-methyl-2H-indazol-4-yloxy]-ethyl}-pyrrolidin-2-one], the EC50 in assay [1] (setting [3]) came to 45 nM. Moreover, the IC50 in assay [2] (setting [4]) is 2830 nM.

For the compound `Cc1c2c(O[C@H](C)[C@H]3CNC(=O)C3)cc(-c3cnn(CC4CC4)c3)cc2nn1C` [Example 8, (R)-4-{(R)-1-[6-(1-Cyclopropylmethyl-1H-pyrazol-4-yl)-2,3-dimethyl-2H-indazol-4-yloxy]-ethyl}-pyrrolidin-2-one], in assay [1] (setting [3]), the EC50 was found to be 47 nM. Also, in assay [2] (setting [4]), the IC50 came to 2070 nM.

As for `C[C@@H](Oc1nc(-c2cnn(C(C)(C)C)c2)cc2ncn(C)c12)[C@H]1CNC(=O)C1` [example 3A.02, on page 196 of WO15017610, reference compound], the figures for the half-maximal effective concentration (EC50) in assay [1] (read-out: EC50 in CD63-assay) and in assay [1] (setting [3]) were less than 150 nM and 42 nM, respectively. For the same compound, the IC50 in assay [2] (setting [4]) and in assay [2] (read-out: IC50(FLT3)) was 384 nM in each case.
